Where a name gives a salt, the structure may show the parent alone.
Tests used:
benzodiazepine receptors [1] = experiment: Radioligand binding, displacement of [3H]-Flunitrazepam; settings: rat whole brain membranes, 0.5nM [3H] ligand; read-out: [^3H]-Flu Ki
Description: (§1) An interaction with benzodiazepine receptors in the central nervous system may be indicative of anxiolytic activity since inhibition of benzodiazepine binding correlates with the clinical efficacy of benzodiazepines. [^3H]-Flunitrazepam and [^3H]-βCCE selectively label benzodiazepine receptors and displacement of this specific binding in vitro by novel compounds in well-washed, frozen rat whole brain membranes is measured essentially as described by Martin and Candy (1978). At the fixed concentration of 0.5nM used, specific binding of both [^3H] ligands represents 80-90% of the total radioactivity bound. Non-specific binding is defined by 10µM clonazepam for each ligand. IC50 values are calculated from log [dose] against % inhibition curves; Ki values are determined using the Cheng-Prusoff equation.

benzodiazepine receptors [2] = experiment: Radioligand binding, displacement of [3H]-βCCE; settings: rat whole brain membranes, 0.5nM [3H] ligand
Description: as §1

Structure (SMILES): CCOC(=O)c1cnc2ccsc2c1NNc1ccccc1 [Example E1, 7-(2-Phenylhydrazino)-thieno[3,2-b]pyridine-6-carboxylic acid, ethyl ester, monohydrochloride]
- Ki (benzodiazepine receptors [1]): 7000 nM
- Ki (benzodiazepine receptors [2]): 5000 nM

Structure (SMILES): CCOC(=O)c1cnc2ccsc2c1NNc1ccc([N+](=O)[O-])cc1 [Example E3, 7-(2-(4-Nitrophenyl)hydrazino)-thieno[3,2-b]pyridine-6-carboxylic acid, ethyl ester, monohydrochloride]
- Ki (benzodiazepine receptors [1]): 1000 nM
- Ki (benzodiazepine receptors [2]): 1500 nM

Structure (SMILES): CCOC(=O)c1cnc2ccsc2c1NNc1ccc(C)cc1 [Example E5, 7-(2-(4-Methylphenyl)hyarazino)-thieno[3,2-b]pyridine-6-carboxylic acid, ethyl ester, tnonohydrochloride]
- Ki (benzodiazepine receptors [1]): 6500 nM
- Ki (benzodiazepine receptors [2]): > 100000 nM

Structure (SMILES): CCOC(=O)c1cnc2ccsc2c1NNc1ccccn1 [Example E6, 7-(2-(2-Pyridyl)hydrazino)-thieno[3,2-b]pyridihe-6-carboxylic acid, ethyl ester, monohydrochloride]
- Ki (benzodiazepine receptors [1]): 350 nM
- Ki (benzodiazepine receptors [2]): 360 nM

Structure (SMILES): CCOC(=O)c1cnc2ccsc2c1NNc1ccc(OC)cc1 [Example E8, 7-{2-(4-Methoxyphenyl)hydrazino)-thieno[3,2-b]pyridine-6-carboxylic acid, ethyl ester, monbhydrochloride]
- Ki (benzodiazepine receptors [1]): 2400 nM
- Ki (benzodiazepine receptors [2]): 3300 nM

Structure (SMILES): CCOC(=O)c1c(C)nc2ccsc2c1NNc1ccccc1 [Example E10, 5-Methyl-7-(2-phenylhydrazino)-thieno[3,2-b]pyridine-6-carboxylic acid, ethyl ester, monohydrochloride]
- Ki (benzodiazepine receptors [1]): 39000 nM
- Ki (benzodiazepine receptors [2]): 23000 nM

Structure (SMILES): CCOC(=O)c1c(C)nc2ccsc2c1NNc1ccc(Cl)cc1 [Example E11, 7-(2-(4-Chlorophenyl)hydrazino)-5-methyl-thieno[3,2-b] pyridine-6-carboxylic acid, ethyl estet, monohydrochloride]
- Ki (benzodiazepine receptors [1]): 200 nM
- Ki (benzodiazepine receptors [2]): 290 nM

Structure (SMILES): Cc1[nH]c2ccsc2c2nn(-c3ccc(Cl)cc3)c(=O)c1-2 [Example E20, 2-(4-Chlorophenyl)-2,5-dihydro-4-methyl-3H-pyrazolo [3,4-d]thieno[3,2-b]pyridin-3-one]
- Ki (benzodiazepine receptors [1]): 1000 nM
- Ki (benzodiazepine receptors [2]): 2200 nM

Structure (SMILES): O=c1c2c[nH]c3ccsc3c-2nn1-c1ccc(Cl)cc1 [Example E21, 2-(4-Chlorophenyl)-2,5-dihydro-3H-pyrazolo[3,4-d]thieno [3,2-b]pyridin-3-one]
- Ki (benzodiazepine receptors [1]): 0.46 nM
- Ki (benzodiazepine receptors [2]): 0.38 nM

Structure (SMILES): O=c1c2c[nH]c3ccsc3c-2nn1-c1cc(Cl)cc(Cl)c1 [Example E22, 2-(3,5-Dichlorophenyl)-2,5-dihy dro-3H-pyrazolo[3,9-d] thieno[3,2-b]pyrirlin-3-one]
- Ki (benzodiazepine receptors [1]): 180 nM
- Ki (benzodiazepine receptors [2]): 170 nM

Structure (SMILES): Cc1ccc(-n2nc3c4sccc4[nH]cc-3c2=O)cc1 [Example E23, 2,5-Dihydro-2-(4-methylphenyl)-3H-pyrazolo[3,4-d]thieno [3,2-b]pyridin-3-one]
- Ki (benzodiazepine receptors [1]): 0.82 nM
- Ki (benzodiazepine receptors [2]): 0.31 nM

Structure (SMILES): COc1ccc(-n2nc3c4sccc4[nH]cc-3c2=O)cc1 [Example E24, 2,5-Dihydro-2-(4-methoxyphenl)-3H-pyrazolo[3,4-d]thieno [3,2-b]pyridin-3-one]
- Ki (benzodiazepine receptors [1]): 0.23 nM

Structure (SMILES): Cc1[nH]c2ccsc2c2nn(-c3ccccc3)c(=O)c1-2 [Example E25, 2,5-Dihydro-4-methl-2-phenyl-3H-pyrazolo[3,4-d]thieno [3,2-b]pyridin-3-one]
- Ki (benzodiazepine receptors [1]): 99 nM
- Ki (benzodiazepine receptors [2]): 107 nM

Structure (SMILES): CCc1cc2c3nn(-c4ccc(Cl)cc4)c(=O)c-3c[nH]c2s1 [Example E28, 2-(4-Chlorophenyl)-2,5-dihydro-7-ethyl-3H-pyrazolo[3,4-d] thieno[2,3-b]pyridin-3-one]
- Ki (benzodiazepine receptors [1]): 1.8 nM

Structure (SMILES): CCc1cc2c3nn(-c4ccc(Cl)cc4)c(=O)c-3c(C)[nH]c2s1 [Example E29, 2-(4-Chlorophenyl)-2,5-dihydro-7-ethyl-4-methyl-3H-pyrazolo[3,4-d]thieno[2,3-b]pyridin-3-one]
- Ki (benzodiazepine receptors [1]): 568 nM

Structure (SMILES): O=c1c2c[nH]c3ccsc3c-2nn1-c1ccccn1 [Example E30]
- Ki (benzodiazepine receptors [1]): 0.7 nM

Structure (SMILES): O=c1c2c[nH]c3cscc3c-2nn1-c1ccc(Cl)cc1 [Example E31, 2-(4-Chlorophenyl)-2,5-dihydro-3H-pyrazolo[3,4-d]thieno [3,4-b]pyridin-3-one]
- Ki (benzodiazepine receptors [1]): 0.32 nM

From patent EP0126970A2, “Anxiolytic and anti-depressant thienopyridine derivatives” (BEECHAM GROUP PLC, priority 1983, dated 1984)
